Test results as given in patent publication US4376125A, “Aminobenzlpropranolol and pharmaceutical preparation thereof” (University of Virginia Alumni Patents Foundation, priority 1980, dated 1983).
Where two headings read alike, the source gives them in different places.

Experiments:
β-adrenergic receptors [1] = biological target: T1, β-adrenergic receptors (Rattus norvegicus, UniProt P18090); assay: Equilibrium saturation binding of (125I)-iodohydroxybenzylpindolol in treated and washed C6 glioma cells
T1 construct: β-adrenergic receptors in intact living cells; endogenous in cells; host or cells: C6 rat glioma cells, 2B subclone
T1 sequence (P18090 whole entry): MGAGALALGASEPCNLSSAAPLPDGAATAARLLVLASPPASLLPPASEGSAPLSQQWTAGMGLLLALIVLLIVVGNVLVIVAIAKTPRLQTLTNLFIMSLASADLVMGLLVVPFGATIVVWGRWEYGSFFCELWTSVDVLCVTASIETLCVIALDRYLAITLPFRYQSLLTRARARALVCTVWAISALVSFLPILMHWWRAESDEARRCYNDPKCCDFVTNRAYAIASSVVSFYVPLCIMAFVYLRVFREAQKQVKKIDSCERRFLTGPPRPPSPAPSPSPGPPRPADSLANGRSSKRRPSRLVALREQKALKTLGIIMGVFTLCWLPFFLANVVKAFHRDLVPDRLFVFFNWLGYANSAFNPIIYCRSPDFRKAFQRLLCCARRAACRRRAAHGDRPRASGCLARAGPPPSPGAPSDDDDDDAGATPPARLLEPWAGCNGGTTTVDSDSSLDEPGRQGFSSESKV
Excerpt: All washing experiments involving glioma cells utilized this salt solution as the wash medium.
It would be predicted that the occupation of a receptor by a specific ligand should be considered as an effective loss of that receptor provided that the ligand dissociates sufficiently slowly or not at all. […] For all data points, n=3.

β-adrenergic receptors [2] = biological target: T1, β-adrenergic receptors; assay: Displacement of specific (125I)-iodohydroxybenzylpindolol binding, acute or after washing, in intact C6 rat glioma cells
Procedure: For the study involving glioma cells, C6 rat glioma cells, 2B subclone were grown in monolayer cultures by the technique described by Terasaki et al, J. Biol. Chem., 253, 5418-5425 in 16 mm plastic cluster dishes. In all experiments, the cells were changed from Ham's F-10 containing 10% fetal bovine serum growth medium to a simple salt medium containing 130 mM NaCl, 4 mM KCl, 0.6 mM MgSO4, 0.3 mM CaCl2, 5 mM sodium phosphate buffer (pH 7.4). All washing experiments involving glioma cells utilized this salt solution as the wash medium.
In other test plates, the cells were pretreated with aminobenzylpropranolol blocking agent and then washed repeatedly over a period of 3 hours at 37° C. before determination of [^125 I]-iodohydroxybenzylpindolol binding. For all points, n=3, which means that each data point is an average of three separate determinations. […] (This value was corrected for competition by (^125 I)-iodohydroxybenzylpindolol).

[3] = tested on: intracellular cyclic AMP in isoproterenol-treated glioma cells (β-adrenergic receptors); assay: Isoproterenol-stimulated intracellular cyclic AMP accumulation in pretreated, washed C6 glioma cells; assay type: cell-based, rat; conditions: for increase of apparent activation constant for isoproterenol: 40 minutes, then washed 3 hours at 37° C.
Procedure: The ability of the present β-adrenergic receptor blocking compound to function as an effective β-adrenergic blocking agent for the selective elimination of cellular β-adrenergic receptors is apparent from the following study on the interaction of aminobenzylpropranolol with glioma cells and mammalian atrium cells. For the study involving glioma cells, C6 rat glioma cells, 2B subclone were grown in monolayer cultures by the technique described by Terasaki et al, J. Biol. Chem., 253, 5418-5425 in 16 mm plastic cluster dishes. In all experiments, the cells were changed from Ham's F-10 containing 10% fetal bovine serum growth medium to a simple salt medium containing 130 mM NaCl, 4 mM KCl, 0.6 mM MgSO4, 0.3 mM CaCl2, 5 mM sodium phosphate buffer (pH 7.4). All washing experiments involving glioma cells utilized this salt solution as the wash medium. In experiments involving the glioma cells, specific (propranolol-displaceable) binding of (^125 I)-iodohydroxybenzylpindolol to C6 rat glioma cells was performed by the method developed by Terasaki et al (see above reference) with the exception that in all solutions phentolamine was omitted, and at the termination of the radioligand binding reaction, 0.1 mM (±)-propranololwas included in the cell wash solution.
In the study glioma cells were treated for 40 minutes with zero, 0.1 μM (Δ) or 1 μM aminobenzylpropranolol and then washed with salt solution for 3 hours at 37° C. After washing, the cells were treated for 20 minutes with ((-)-isoproterenol) and extracted with HCl to determine the amount of cyclic AMP. For all data points, n=3.

[4] = tested on: rat atria (β-adrenergic receptors); assay: Isoproterenol-increased tension development in isolated rat atria; assay type: cell-based; conditions: for EC50: Rattus norvegicus, control rat atria, read-out: apparent KAct of isoproterenol
Procedure: (§1) For the tests atrial preparations were obtained by excising hearts from 200-250 g male Wistar rats or 300-400 g male Hartley guinea pigs. All of the animals were pretreated with reserpine (5 mg/kg) administered interperitoneally 15-18 hours before the animals were killed by a blow to the back of the neck. Left atria were maintained at 30° C. […] The buffer was vigorously bubbled with 95% O2 -5% CO2. Atria hooked to platinum-iridium electrodes were stimulated at 1 second intervals with 10 msec monophasic pulses at twice the threshold voltage for contractions. Developed tension was recorded on Beckman oscillographic recorders (Dynographs) and the signals processed by a DEC LSI-11 microcomputer. […] The inhibition is time and dose dependent. […] The cumulative dose response curves to (-)-isoproterenol were determined (n=2-3). At the termination of each experiment, maximum tension was determined by exposing atria to 100 μM isobutylmethylxanthine.

[5] = tested on: guinea pig atria (β-adrenergic receptors); assay: Isoproterenol-increased tension development in isolated guinea pig atria; assay type: cell-based; conditions: for shift in cumulative isoproterenol dose response curve: guinea pig atria
Procedure: as §1

guinea pig atria = assay: Positive inotropic response of isolated guinea pig atria to histamine; assay type: cell-based; conditions: guinea pig atria pretreated with aminobenzylpropranolol
Procedure: Experiments were also conducted to determine the extent of aminobenzylpropranolol antagonism to isoproterenol-stimulated contractility in isolated atria. For the tests atrial preparations were obtained by excising hearts from 200-250 g male Wistar rats or 300-400 g male Hartley guinea pigs. All of the animals were pretreated with reserpine (5 mg/kg) administered interperitoneally 15-18 hours before the animals were killed by a blow to the back of the neck. Left atria were maintained at 30° C. (pH 7.4) in buffer containing: 118 mM NaCl, 4.75 mM KCl, 1.2 mM KH2 PO4, 1.2 mM MgSO4, 5.5 mM dextrose, 25 mM NaHCO3, and 1 mM CaCl2. The buffer was vigorously bubbled with 95% O2 -5% CO2. Atria hooked to platinum-iridium electrodes were stimulated at 1 second intervals with 10 msec monophasic pulses at twice the threshold voltage for contractions. Developed tension was recorded on Beckman oscillographic recorders (Dynographs) and the signals processed by a DEC LSI-11 microcomputer.
FIG. 4 contains the cumulative dose response curves to histamine treated atria (n=2-3).

[6] = tested on: isolated atria (β-adrenergic receptors); assay: Contractility of isolated atria, species not distinguished; assay type: cell-based, rat or guinea pig
Procedure: as §1, with “isobutylmethylxanthine. […] The degree of inhibition was similar to that observed in glioma cells. […] (2) Efficacy was also assessed by using the phosphodiesterase inhibitor, isobutylmethylxanthine, which is able to elicit a maximal response by itself.” for “isobutylmethylxanthine.”

[7] = tested on: β-adrenergic receptors of guinea pig taenia; conditions: receptors photolyzed with isoproterenol or 2-(2-hydroxy-3-isopropylaminopropoxy) iodobenzene; cited from earlier work
[8] = tested on: cat papillary muscle (β-adrenergic receptors); conditions: cited from earlier work
[9] = 1 μM for 50 minutes prior to washing
[10] = blocked by N-[2-hydroxy-3-(1-naphthoxy)-propyl]-N-bromoacetylethylenediamine

Q: Which Kd (β-adrenergic receptors [1]; glioma cells, not different between treated and control, read-out: equilibrium dissociation constant (KD) for (125I)-iodohydroxybenzylpindolol) does the source give for CC(C)(Cc1ccc(O)c(I)c1)NCC(O)COc1cccc2[nH]ccc12 (stereo not shown) [(^125 I)-iodohydroxybenzylpindolol, reference compound] here?
A: The Kd was 0.06 nM.

Q: For CC(C)(Cc1ccc(N)cc1)NCC(O)COc1cccc2ccccc12 (stereo not drawn) [aminobenzylpropranolol, 1-(p-amino-α,α-dimethylphenethylamino)-3-(1-naphthoxy)-2-propanol], which Kd (β-adrenergic receptors [2]; 40 min at 37° C., corrected for competition by (125I)-iodohydroxybenzylpindolol, read-out: apparent KD in blocking one-half of the β-receptors) is on record?
A: Its Kd is 8 nM.

Q: And the “antagonist potency, displacing (125I)-iodohydroxybenzylpindolol from β-adrenergic receptors” value (β-adrenergic receptors [2]; intact living glioma cells)?
A: Its value is “relatively potent β-adrenergic antagonist”.

Q: And the “ability to block β-adrenergic receptors assayed acutely (vs after washing)” value (β-adrenergic receptors [2]; washed repeatedly over 3 hours at 37° C.)?
A: The value was “no significant difference”.

Q: What about the “effect on affinity of the remaining receptors for (125I)-iodohydroxybenzylpindolol” value (β-adrenergic receptors [1]; 80 nM, 40 minutes (37° C.), washed for 3 hours) of the same compound?
A: The value was “not accomplished by a change in the affinity”.

Q: What about the inhibition at 0.08 µM (β-adrenergic receptors [1]; 40 min, 80 nM, 40 minutes (37° C.), washed for 3 hours, read-out: maximum binding capacity diminished) of the same compound?
A: Its inhibition at 0.08 µM is 70%.

Q: What about the “maximum receptor binding (FIG. 2)” value (β-adrenergic receptors [1]; treated then washed with salt solution) of the same compound?
A: The value was “marked reduction”.

Q: And the “maximal attainable level of intracellular cyclic AMP” value ([3]; 0.1 μM and 1 μM)?
A: Its value is “no change”.

Q: And the “increase of apparent activation constant for isoproterenol” value ([3]; 0.1 μM)?
A: Its value is 0.4 log units.

Q: And the “increase of apparent activation constant for isoproterenol” value ([3]; 1 μM)?
A: The value was 1.1 log units.

Q: And the “increases in intracellular cyclic AMP in isoproterenol-treated glioma cells” value ([3]; only at submaximal concentrations of the catecholamine)?
A: The value was “inhibited”.

Q: What about the “shift in cumulative isoproterenol dose response curve” value ([4]; 0.1 μM for 1 hour, rat atria) of the same compound?
A: The value was 0.5 log.

Q: And the “fold increase in apparent KAct for isoproterenol” value (shortened to “fold increase in apparent KAct”) ([4]; 1 μM for 5 minutes prior to washing)?
A: The value was 1.2 fold.

Q: What about the “fold increase in apparent KAct” value ([4]; 1 μM for 20 minutes prior to washing) of the same compound?
A: Its value is 5.2 fold.

Q: And the “fold increase in apparent KAct” value [4, 9]?
A: Its value is 13.5 fold.

Q: And the “increase in apparent KAct for isoproterenol” value [4, 9]?
A: The value was 1.1 log units.

Q: What about the “rightward shift of isoproterenol dose response curves” value ([4]; 3 μM for 1 hour, washed 17 hours, 30° C.) of the same compound?
A: Its value is 1.5 log units.

Q: And the “decrease in inhibition of the isoproterenol response on extended washing” value ([4]; 3 μM for 1 hour, washed 17 hours, vs parallel washed control tissues)?
A: Its value is “no detectable decrease”.

Q: What about the “shift in cumulative isoproterenol dose response curve” value ([4]; 10 μM for 1 hour, rat atria) of the same compound?
A: Its value is 2 log.

Q: What about the “onset of the inhibitory action” value ([4]; rat atria) of the same compound?
A: Its value is “slow”.

Q: And the isoproterenol-increased tension development ([4]; time and dose dependent)?
A: Its isoproterenol-increased tension development is “inhibits”.

Q: And the “shift in cumulative isoproterenol dose response curve” value ([5]; 0.1 μM for 1 hour)?
A: The value was 0.5 log.

Q: And the “shift in cumulative isoproterenol dose response curve” value ([5]; 10 μM for 1 hour)?
A: The value was 2 log.

Q: What about the isoproterenol-increased tension development ([5]; time and dose dependent) of the same compound?
A: The isoproterenol-increased tension development was “inhibits”.

Q: And the “positive inotropic response to histamine” value (guinea pig atria)?
A: The value was “unaltered”.

Q: What about the “sensitivity to isoproterenol of treated atria” value ([6]; 0.1 μM or 10 μM pretreatment, washed five times) of the same compound?
A: The value was “decreased sensitivity to isoproterenol”.

Q: And the “inhibitory activity in medium transferred from treated, washed atrium to fresh atrium” value ([6]; after washing)?
A: Its value is “no inhibitory activity”.

Q: What about the “efficacy (maximum response) of isoproterenol in treated atria” value ([6]; aminobenzylpropranolol-treated atria) of the same compound?
A: The value was “unchanged”.

Q: What about the “reversal of blockage by high concentrations of isoproterenol” value ([6]; multiple washes and rechallenges) of the same compound?
A: The value was “did not reverse the blockage”.

Q: And the “maximal level of tension development” value ([6]; pretreated with 0.1 μM isoproterenol, washed, then 10 μM aminobenzylpropranolol)?
A: The value was “remained the same”.

Q: For CC(C)Cn1c(=O)n(C)c(=O)c2[nH]cnc21 [isobutylmethylxanthine, reference compound], which “increase in developed tension” value ([6]; 100 μM isobutylmethylxanthine added to atria treated with 10 μM isoproterenol) is on record?
A: The value was “less than 5%”.

Q: Which results are given for CC(C)NCC(O)c1ccc(O)c(O)c1 (stereo not shown) [isoproterenol, N-isopropylnoradrenaline, reference compound]?
A: EC50 ([4]; first dose response curve): 0.9 nM; EC50 ([4]; second dose response curve): 4.7 nM; effect on tension in absence of inhibitor ([6]; 0.1 μM isoproterenol): maximally effective; desensitization on multiple exposures (decrease in potency for isoproterenol) ([6]; control atria, not pretreated with the inhibitor): small degree of desensitization; maximal relaxation by isoproterenol in photolyzed tissue [7]: maximal relaxation could still be elicited; potency of isoproterenol in photolyzed tissue [7]: potency was decreased; inotropic and cyclic AMP responses to isoproterenol after irreversible block [8, 10]: maximal; potency of isoproterenol after irreversible block [8, 10]: decreased potency

Q: Which block of receptors ([8]; cat papillary muscle) does the source give for “N-[2-hydroxy-3-(1-naphthoxy)-propyl]-N-bromoacetylethylenediamine” here?
A: The block of receptors was “irreversibly blocked”.
